# Results: PubChem BioAssay (NCI)
#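 Values below derive from 48-hour exposures of cells grown in 96-well plates, with endpoints linearly interpolated between the two concentrations bracketing the appropriate inhibition level. GI50 is the concentration that inhibits growth by half. TGI denotes the concentration required for complete inhibition of growth.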
# Key:
# Assay in all cases: inhibition of tumour cell growth, NCI panel, 48 h
# [1] = tested on: SR leukemia
# [2] = tested on: RPMI-8226 leukemia
# [3] = tested on: HS 578T breast
# [4] = tested on: OVCAR-4 ovarian
# [5] = tested on: HOP-62 NSCLC
# [6] = tested on: UO-31 renal
# [7] = tested on: ACHN renal
# [8] = tested on: LOX IMVI melanoma
# [9] = tested on: KM12 colon
# [10] = tested on: CAKI-1 renal
# [11] = tested on: DU-145 prostate
# [12] = tested on: K-562 leukemia
# [13] = tested on: BT-549 breast
# [14] = tested on: OVCAR-3 ovarian
# [15] = tested on: UACC-257 melanoma
# [16] = tested on: M14 melanoma
# [17] = tested on: COLO 205 colon
# [18] = tested on: NCI-H226 lung
# [19] = tested on: HCC-2998 colon
# [20] = tested on: SN12C renal
# [21] = tested on: EKVX NSCLC
# [22] = tested on: SK-MEL-2 melanoma
# [23] = tested on: SF-268 CNS
# [24] = tested on: NCI-H522 lung
# [25] = tested on: NCI/ADR-RES ovarian
# [26] = tested on: SW-620 colon
# [27] = tested on: MDA-MB-231 breast
# [28] = tested on: MALME-3M melanoma
# [29] = tested on: SNB-19 CNS
# [30] = tested on: NCI-H460 lung
# [31] = tested on: U251 CNS
# [32] = tested on: NCI-H23 lung
# [33] = tested on: 786-0 renal
# [34] = tested on: MDA-MB-435
# [35] = tested on: SF-295 CNS
# [36] = tested on: OVCAR-8 ovarian
# [37] = tested on: SK-MEL-5 melanoma
# [38] = tested on: SK-OV-3 ovarian
# [39] = tested on: HT29 colon
# [40] = tested on: MCF7 breast
# [41] = tested on: IGROV1 ovarian
# [42] = tested on: A498 renal
# [43] = tested on: A549 NSCLC
# [44] = tested on: HCT-116 colon
# [45] = tested on: UACC-62 melanoma
# [46] = tested on: PC-3 prostate
# [47] = tested on: RXF 393 renal
# [48] = tested on: SK-MEL-28 melanoma
# [49] = tested on: SF-539 CNS
# [50] = tested on: MOLT-4 leukemia
# [51] = tested on: OVCAR-5 ovarian
# [52] = tested on: HCT-15 colon
# [53] = tested on: T-47D breast
# [54] = tested on: TK-10 renal
smiles,measurement,setting,value
Cn1ccc2c3c(Oc4ccc(NC(N)=O)cc4)ccnc3ccc21,GI50,[1],> 100 µM
same,TGI,[1],> 100 µM
same,GI50,[2],> 100 µM
same,TGI,[2],> 100 µM
same,GI50,[3],40.1 µM
same,TGI,[3],> 100 µM
same,GI50,[4],> 100 µM
same,TGI,[4],> 100 µM
same,GI50,[5],> 100 µM
same,TGI,[5],> 100 µM
same,GI50,[6],> 100 µM
same,TGI,[6],> 100 µM
same,GI50,[7],> 100 µM
same,TGI,[7],> 100 µM
same,GI50,[8],> 100 µM
same,TGI,[8],> 100 µM
same,GI50,[9],> 100 µM
same,TGI,[9],> 100 µM
same,GI50,[10],> 100 µM
same,TGI,[10],> 100 µM
same,GI50,[11],> 100 µM
same,TGI,[11],> 100 µM
same,GI50,[12],> 100 µM
same,TGI,[12],> 100 µM
same,GI50,[13],> 100 µM
same,TGI,[13],> 100 µM
same,GI50,[14],> 100 µM
same,TGI,[14],> 100 µM
same,GI50,[15],> 100 µM
same,TGI,[15],> 100 µM
same,GI50,[16],> 100 µM
same,TGI,[16],> 100 µM
same,GI50,[17],> 100 µM
same,TGI,[17],> 100 µM
same,GI50,[18],> 100 µM
same,TGI,[18],> 100 µM
same,GI50,[19],> 100 µM
same,TGI,[19],> 100 µM
same,GI50,[20],> 100 µM
same,TGI,[20],> 100 µM
same,GI50,[21],> 100 µM
same,TGI,[21],> 100 µM
same,GI50,[22],> 100 µM
same,TGI,[22],> 100 µM
same,GI50,[23],> 100 µM
same,TGI,[23],> 100 µM
same,GI50,[24],> 100 µM
same,TGI,[24],> 100 µM
same,GI50,[25],> 100 µM
same,TGI,[25],> 100 µM
same,GI50,[26],> 100 µM
same,TGI,[26],> 100 µM
same,GI50,[27],> 100 µM
same,TGI,[27],> 100 µM
same,GI50,[28],> 100 µM
same,TGI,[28],> 100 µM
same,GI50,[29],> 100 µM
same,TGI,[29],> 100 µM
same,GI50,[30],> 100 µM
same,TGI,[30],> 100 µM
same,GI50,[31],> 100 µM
same,TGI,[31],> 100 µM
same,GI50,[32],> 100 µM
same,TGI,[32],> 100 µM
same,GI50,[33],> 100 µM
same,TGI,[33],> 100 µM
same,GI50,[34],> 100 µM
same,TGI,[34],> 100 µM
same,GI50,[35],> 100 µM
same,TGI,[35],> 100 µM
same,GI50,[36],> 100 µM
same,TGI,[36],> 100 µM
same,GI50,[37],20.7 µM
same,TGI,[37],> 100 µM
same,GI50,[38],> 100 µM
same,TGI,[38],> 100 µM
same,GI50,[39],> 100 µM
same,TGI,[39],> 100 µM
same,GI50,[40],> 100 µM
same,TGI,[40],> 100 µM
same,GI50,[41],> 100 µM
same,TGI,[41],> 100 µM
same,GI50,[42],> 100 µM
same,TGI,[42],> 100 µM
same,GI50,[43],> 100 µM
same,TGI,[43],> 100 µM
same,GI50,[44],> 100 µM
same,TGI,[44],> 100 µM
same,GI50,[45],> 100 µM
same,TGI,[45],> 100 µM
same,GI50,[46],> 100 µM
same,TGI,[46],> 100 µM
same,GI50,[47],> 100 µM
same,TGI,[47],> 100 µM
same,GI50,[48],> 100 µM
same,TGI,[48],> 100 µM
same,GI50,[49],> 100 µM
same,TGI,[49],> 100 µM
same,GI50,[50],> 100 µM
same,TGI,[50],> 100 µM
same,GI50,[51],> 100 µM
same,TGI,[51],> 100 µM
same,GI50,[52],> 100 µM
same,TGI,[52],> 100 µM
same,GI50,[53],> 100 µM
same,TGI,[53],> 100 µM
same,GI50,[54],> 100 µM
same,TGI,[54],> 100 µM
